Earlier results on 1 compound are cited in patent US20240299307A1, “Extended-release compositions comprising atomoxetine” (Tulex Pharmaceuticals, Inc., priority 2021, published 2024).

Like-named read-outs stand apart in the source and are kept apart here.

Regarding `CNCC[C@@H](Oc1ccccc1C)c1ccccc1` [ATO], the solubility result (pH of about 1) is “about 18 mg/mL” and the solubility entry (pH of about 4.5 (highest solubility)) is on record as “about 52 mg/mL”. Further, the “decrease of solubility relative to pH about 4.5” value by setting is: (pH of greater than about 4.5) “approximately 10 fold”; (pH of less than 4.5) “approximately 3 fold”.
